ChEMBL document CHEMBL1201862, “PubChem BioAssay data set” (2004)
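Five compound concentrations were applied to cells in 96-well plates for 48 hours; endpoints were derived by simple linear interpolation of the resulting dose-response curve. At the GI50, growth is halved.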 Activity calls are given as the source filed them. Rule as the data show it: active = GI50 up to about 1.1 µM and inactive = higher.

Experiments:
Assay in all cases: growth of human tumour cells (NCI), 48 h
[1] = tested on: OVCAR-5
[2] = tested on: IGROV-1
[3] = tested on: SNB-19
[4] = tested on: SK-MEL-28
[5] = tested on: CCRF-CEM
[6] = tested on: SF-539
[7] = tested on: HCT-116
[8] = tested on: PC-3
[9] = tested on: ACHN
[10] = tested on: MOLT-4
[11] = tested on: SNB-75
[12] = tested on: NCI-H23
[13] = tested on: SF-268
[14] = tested on: M14
[15] = tested on: HL-60
[16] = tested on: UO-31
[17] = tested on: SR
[18] = tested on: OVCAR-8
[19] = tested on: NCI/ADR-RES
[20] = tested on: NCI-H460

Structure (SMILES) | GI50 [1] | GI50 [2] | GI50 [3] | GI50 [4] | GI50 [5] | GI50 [6] | GI50 [7] | GI50 [8] | GI50 [9] | GI50 [10] | GI50 [11] | GI50 [12] | GI50 [13] | GI50 [14] | GI50 [15] | GI50 [16] | GI50 [17] | GI50 [18] | GI50 [19] | GI50 [20]
CN1CN(c2ccccc2)C2(CCN(CCCCCCF)CC2)C1=O | 35 µM (inactive) | 40.3 µM (inactive) | 71.1 µM (inactive) | > 100 µM (inactive) | 37.9 µM (inactive) | 28.8 µM (inactive) | 28.8 µM (inactive) | > 100 µM (inactive) | 31.6 µM (inactive) | 48.9 µM (inactive) | > 100 µM (inactive) | 94 µM (inactive) | 94.8 µM (inactive) | 73.5 µM (inactive) | > 100 µM (inactive) | 26.7 µM (inactive) | > 100 µM (inactive) | > 100 µM (inactive) | 16.4 µM (inactive) | 
CCOC(=O)NC(C(F)(F)F)(C(F)(F)F)P(=O)(OC(C)C)OC(C)C | > 100 µM (inactive) | > 100 µM (inactive) | > 100 µM (inactive) | > 100 µM (inactive) | > 100 µM (inactive) | > 100 µM (inactive) | > 100 µM (inactive) | > 100 µM (inactive) | > 100 µM (inactive) | > 100 µM (inactive) | > 100 µM (inactive) | > 100 µM (inactive) | > 100 µM (inactive) |  | > 100 µM (inactive) | > 100 µM (inactive) | > 100 µM (inactive) | > 100 µM (inactive) | > 100 µM (inactive) | > 100 µM (inactive)
N#Cc1c(C#N)c(SSc2c(C#N)c(C#N)c(N)n2-c2ccc(F)cc2)n(-c2ccc(F)cc2)c1N | 17.1 µM (inactive) | 16.7 µM (inactive) | 21.6 µM (inactive) | 3.72 µM (inactive) | 2.02 µM (inactive) | 19.2 µM (inactive) | 1.9 µM (inactive) | 17.9 µM (inactive) | 3.66 µM (inactive) | 0.619 µM (active) | 5.77 µM (inactive) | 6.73 µM (inactive) | 17.5 µM (inactive) | 4.8 µM (inactive) | 2 µM (inactive) | 2.06 µM (inactive) | 0.59 µM (active) | 6.55 µM (inactive) | 24.3 µM (inactive) | 20.2 µM (inactive)
CCOC(=O)c1c(SCc2ccccc2)nc2c3ccccc3ccn12 | > 100 µM (inactive) | 38.9 µM (inactive) |  | > 100 µM (inactive) | > 100 µM (inactive) | 79.4 µM (inactive) | > 100 µM (inactive) | > 100 µM (inactive) | 24 µM (inactive) | > 100 µM (inactive) | 25.9 µM (inactive) | > 100 µM (inactive) | 94 µM (inactive) | > 100 µM (inactive) | > 100 µM (inactive) |  | 47 µM (inactive) | 83.6 µM (inactive) | > 100 µM (inactive) | 55.6 µM (inactive)
CC1(C)CC(C2=NCCO2)CC(C)(C)N1 | > 100 µM (inactive) | > 100 µM (inactive) | > 100 µM (inactive) | > 100 µM (inactive) | > 100 µM (inactive) | > 100 µM (inactive) | > 100 µM (inactive) | > 100 µM (inactive) | > 100 µM (inactive) | > 100 µM (inactive) | > 100 µM (inactive) | > 100 µM (inactive) | > 100 µM (inactive) | > 100 µM (inactive) | > 100 µM (inactive) | > 100 µM (inactive) | > 100 µM (inactive) | > 100 µM (inactive) | > 100 µM (inactive) | 
COc1cc(C(O)CCBr)c(OC)cc1C (stereo unspecified) | > 47.1 µM (inactive) | 24.4 µM (inactive) | > 75.5 µM (inactive) | 24.4 µM (inactive) | 3.07 µM (inactive) | 8.17 µM (inactive) | 3.93 µM (inactive) | 6.65 µM (inactive) | 35.7 µM (inactive) |  | 30.1 µM (inactive) | 14.3 µM (inactive) | 31.4 µM (inactive) | 4.6 µM (inactive) | > 24.7 µM (inactive) | 26.3 µM (inactive) | 13 µM (inactive) | 6.97 µM (inactive) | 7.43 µM (inactive) | 30.5 µM (inactive)
CSc1ccc(-c2cc(-c3nc4ccccc4[nH]3)nc3[nH]c(-c4nc5ccccc5[nH]4)cc(=O)c23)cc1 | > 100 µM (inactive) | > 100 µM (inactive) | > 100 µM (inactive) |  | 73.6 µM (inactive) | > 100 µM (inactive) | 39.4 µM (inactive) | > 100 µM (inactive) | 29.4 µM (inactive) | > 100 µM (inactive) | 56.2 µM (inactive) | > 100 µM (inactive) | 49.2 µM (inactive) | 82.4 µM (inactive) | > 100 µM (inactive) | > 100 µM (inactive) | > 100 µM (inactive) | 71 µM (inactive) | > 100 µM (inactive) | 52.1 µM (inactive)
COC(=O)c1ccc(C)cc1C1CN=NC12Cc1c(C)cccc1C2=O (stereo unspecified) | 73.5 µM (inactive) | 46.1 µM (inactive) | 73.1 µM (inactive) | 80.4 µM (inactive) | 53.5 µM (inactive) | 89.1 µM (inactive) | 25.6 µM (inactive) | 40.2 µM (inactive) | 45.4 µM (inactive) | 41.7 µM (inactive) | 32 µM (inactive) | 39.4 µM (inactive) | 52.2 µM (inactive) |  | 28.4 µM (inactive) | 42.9 µM (inactive) | 33.3 µM (inactive) | 60.1 µM (inactive) | 20.3 µM (inactive) | 64.7 µM (inactive)
Cc1cc(C)c2c(n1)S(=O)(=O)N(CCCN1CCN(c3cccc(C(F)(F)F)c3)CC1)C(C(=O)c1ccc(Cl)cc1)=C2O | 4.71 µM (inactive) | 3.26 µM (inactive) | 2.2 µM (inactive) | 5.21 µM (inactive) | 8.15 µM (inactive) | 3.84 µM (inactive) | 2.81 µM (inactive) | 2.88 µM (inactive) | 3.48 µM (inactive) | 0.418 µM (active) | 2.81 µM (inactive) | 2.47 µM (inactive) | 3.69 µM (inactive) | 2.65 µM (inactive) | 1.87 µM (inactive) | 1.33 µM (inactive) | 0.507 µM (active) | 3.83 µM (inactive) | 2.12 µM (inactive) | 1.79 µM (inactive)
Cc1ccc(OCC2OC(C#N)C(Oc3ccc(C)cc3)C2Oc2ccc(C)cc2)cc1 (stereo unspecified) | > 100 µM (inactive) | > 100 µM (inactive) | > 100 µM (inactive) | > 100 µM (inactive) | > 100 µM (inactive) | > 100 µM (inactive) | > 100 µM (inactive) | > 100 µM (inactive) |  | > 100 µM (inactive) | 6.79 µM (inactive) | > 100 µM (inactive) | > 100 µM (inactive) | > 100 µM (inactive) | > 100 µM (inactive) | > 100 µM (inactive) | > 100 µM (inactive) | > 100 µM (inactive) | > 100 µM (inactive) | > 100 µM (inactive)
O=S(=O)(O)CCSSCCS(=O)(=O)O | > 1000 µM (inactive) | > 1000 µM (inactive) | > 1000 µM (inactive) | > 1000 µM (inactive) | > 1000 µM (inactive) | > 1000 µM (inactive) | > 1000 µM (inactive) | > 1000 µM (inactive) | > 1000 µM (inactive) | > 1000 µM (inactive) | > 1000 µM (inactive) | > 1000 µM (inactive) | > 1000 µM (inactive) | > 1000 µM (inactive) | > 1000 µM (inactive) | > 1000 µM (inactive) | > 1000 µM (inactive) | > 1000 µM (inactive) | > 1000 µM (inactive) | > 1000 µM (inactive)
